{"source": "ChEMBL document CHEMBL5131475", "about": "“Metallo-β-lactamases inhibitor fisetin attenuates meropenem resistance in NDM-1-producing Escherichia coli” (Eur J Med Chem, 2022)", "key": {"Escherichia coli [1]": {"system": "Escherichia coli", "assay": "Synergistic antibacterial activity against pET28a NDM-1 positive Escherichia coli BL21(DE3) isolates assessed as fractional Inhibitory concentration index incubated for 18 to 24 hrs in presence of florfenicol by CLSI based broth microdilution method", "type": "functional", "details": "time 18-24 hrs"}, "Mus musculus [2]": {"system": "Mus musculus", "assay": "Antibacterial activity in BALB/c mouse infected with NDM-1 positive Escherichia coli ZJ487 assessed as increase in survival rate at 10 mg/kg, sc administered every 12 hrs and measured after 96 hrs post infection", "type": "functional"}, "[3]": {"assay": "Inhibition of metallo-beta-lactamase IMP-1 (unknown origin) using nitrocefin as substrate preincubated for 15 min followed by substrate addition and measured after 15 min by microplate reader assay", "set-up": "species or system Bacteria"}, "Escherichia coli [4]": {"system": "Escherichia coli", "assay": "Synergistic antibacterial activity against NDM-1 positive Escherichia coli ZC-YN3 isolates assessed as fractional Inhibitory concentration index incubated for 18 to 24 hrs in presence of cefotaxime by CLSI based broth microdilution method", "type": "functional", "details": "time 18-24 hrs"}, "Escherichia coli [5]": {"system": "Escherichia coli", "assay": "Synergistic antibacterial activity against pET28a NDM-1 positive Escherichia coli BL21(DE3) isolates assessed as fractional Inhibitory concentration index incubated for 18 to 24 hrs in presence of ampicillin by CLSI based broth microdilution method", "type": "functional", "details": "time 18-24 hrs"}, "Escherichia coli [6]": {"system": "Escherichia coli", "assay": "Antibacterial activity against NDM-1 positive Escherichia coli ZC-YN3 isolates assessed as meropenem MIC incubated for 18 to 24 hrs by CLSI based broth microdilution method", "type": "functional", "details": "time 18-24 hrs"}, "Escherichia coli [7]": {"system": "Escherichia coli", "assay": "Synergistic antibacterial activity against pET28a NDM-1 positive Escherichia coli BL21(DE3) isolates assessed as fractional Inhibitory concentration index incubated for 18 to 24 hrs in presence of meropenem by CLSI based broth microdilution method", "type": "functional", "details": "time 18-24 hrs"}, "Escherichia coli [8]": {"system": "Escherichia coli", "assay": "Antibacterial activity against NDM-1 positive Escherichia coli ZC-YN3 isolates assessed as ciprofloxacin MIC incubated for 18 to 24 hrs by CLSI based broth microdilution method", "type": "functional", "details": "time 18-24 hrs"}, "Escherichia coli [9]": {"system": "Escherichia coli", "assay": "Antibacterial activity against pET28a-NDM-1 positive Escherichia coli BL21(DE3) isolates assessed as cefotaxime MIC incubated for 18 to 24 hrs by CLSI based broth microdilution method", "type": "functional", "details": "time 18-24 hrs"}, "Escherichia coli [10]": {"system": "Escherichia coli", "assay": "Antibacterial activity against NDM-1 positive Escherichia coli ZC-YN3 isolates assessed as imipenem MIC incubated for 18 to 24 hrs by CLSI based broth microdilution method", "type": "functional", "details": "time 18-24 hrs"}, "Escherichia coli [11]": {"system": "Escherichia coli", "assay": "Antibacterial activity against NDM-1 positive Escherichia coli ZC-YN3 isolates assessed as streptomycin MIC incubated for 18 to 24 hrs by CLSI based broth microdilution method", "type": "functional", "details": "time 18-24 hrs"}, "Escherichia coli [12]": {"system": "Escherichia coli", "assay": "Synergistic antibacterial activity against NDM-1 negative Escherichia coli BL21(DE3) (pET28a) isolates assessed as fractional Inhibitory concentration index incubated for 18 to 24 hrs in presence of meropenem by CLSI based broth microdilution method", "type": "functional", "details": "time 18-24 hrs"}, "Escherichia coli [13]": {"system": "Escherichia coli", "assay": "Antibacterial activity against NDM-1 positive Escherichia coli ZC-YN3 isolates assessed as ampicillin MIC incubated for 18 to 24 hrs by CLSI based broth microdilution method", "type": "functional", "details": "time 18-24 hrs"}, "Mus musculus [14]": {"system": "Mus musculus", "assay": "Antibacterial activity in BALB/c mouse infected with NDM-1 positive Escherichia coli ZJ487 assessed as mouse death rate at 50 mg/kg, sc administered every 12 hrs and measured after 96 hrs post infection", "type": "functional"}, "Escherichia coli [15]": {"system": "Escherichia coli", "assay": "Antibacterial activity against pET28a-NDM-1 positive Escherichia coli BL21(DE3) isolates assessed as ampicillin MIC incubated for 18 to 24 hrs by CLSI based broth microdilution method", "type": "functional", "details": "time 18-24 hrs"}, "Bacteria [16]": {"system": "Bacteria", "assay": "Inhibition of NDM-1 activity (unknown origin) in presence of zinc ion"}, "Escherichia coli [17]": {"system": "Escherichia coli", "assay": "Antibacterial activity against pET28a-NDM-1 positive Escherichia coli BL21(DE3) isolates assessed as lincomycin MIC incubated for 18 to 24 hrs by CLSI based broth microdilution method", "type": "functional", "details": "time 18-24 hrs"}, "Escherichia coli [18]": {"system": "Escherichia coli", "assay": "Antibacterial activity against NDM-1 negative Escherichia coli ATCC25922 isolates assessed as meropenem MIC incubated for 18 to 24 hrs by CLSI based broth microdilution method", "type": "functional", "details": "time 18-24 hrs"}, "Escherichia coli [19]": {"system": "Escherichia coli", "assay": "Synergistic antibacterial activity against pET28a NDM-1 positive Escherichia coli BL21(DE3) isolates assessed as fractional Inhibitory concentration index incubated for 18 to 24 hrs in presence of cefotaxime by CLSI based broth microdilution method", "type": "functional", "details": "time 18-24 hrs"}, "Escherichia coli [20]": {"system": "Escherichia coli", "assay": "Antibacterial activity against pET28a-NDM-1 positive Escherichia coli BL21(DE3) isolates assessed as ciprofloxacin MIC incubated for 18 to 24 hrs by CLSI based broth microdilution method", "type": "functional", "details": "time 18-24 hrs"}, "Escherichia coli [21]": {"system": "Escherichia coli", "assay": "Synergistic antibacterial activity against pET28a NDM-1 positive Escherichia coli BL21(DE3) isolates assessed as fractional Inhibitory concentration index incubated for 18 to 24 hrs in presence of rifampicin by CLSI based broth microdilution method", "type": "functional", "details": "time 18-24 hrs"}, "Escherichia coli [22]": {"system": "Escherichia coli", "assay": "Synergistic antibacterial activity against pET28a NDM-1 positive Escherichia coli BL21(DE3) isolates assessed as fractional Inhibitory concentration index incubated for 18 to 24 hrs in presence of kanamycin by CLSI based broth microdilution method", "type": "functional", "details": "time 18-24 hrs"}, "Escherichia coli [23]": {"system": "Escherichia coli", "assay": "Antibacterial activity against pET28a-NDM-1 positive Escherichia coli BL21(DE3) isolates assessed as doxycycline MIC incubated for 18 to 24 hrs by CLSI based broth microdilution method", "type": "functional", "details": "time 18-24 hrs"}, "Escherichia coli [24]": {"system": "Escherichia coli", "assay": "Antibacterial activity against pET28a-NDM-1 positive Escherichia coli BL21(DE3) isolates assessed as imipenem MIC incubated for 18 to 24 hrs by CLSI based broth microdilution method", "type": "functional", "details": "time 18-24 hrs"}, "Bacteria [25]": {"system": "Bacteria", "description": "Binding affinity to NDM-1 (unknown origin) assessed as binding constant by fluorescence quenching method"}, "[26]": {"assay": "Inhibition of metallo-beta-lactamase NDM-1 (unknown origin) using nitrocefin as substrate preincubated for 15 min followed by substrate addition and measured after 15 min by microplate reader assay", "set-up": "species or system Bacteria"}, "Escherichia coli [27]": {"system": "Escherichia coli", "assay": "Antibacterial activity against NDM-1 positive Escherichia coli ZC-YN3 isolates assessed as kanamycin MIC incubated for 18 to 24 hrs by CLSI based broth microdilution method", "type": "functional", "details": "time 18-24 hrs"}, "Escherichia coli [28]": {"system": "Escherichia coli", "assay": "Antibacterial activity against pET28a-NDM-1 positive Escherichia coli BL21(DE3) isolates assessed as florfenicol MIC incubated for 18 to 24 hrs by CLSI based broth microdilution method", "type": "functional", "details": "time 18-24 hrs"}, "Escherichia coli [29]": {"system": "Escherichia coli", "assay": "Antibacterial activity against NDM-1 positive Escherichia coli ZC-YN3 isolates assessed as colistin MIC incubated for 18 to 24 hrs by CLSI based broth microdilution method", "type": "functional", "details": "time 18-24 hrs"}, "Escherichia coli [30]": {"system": "Escherichia coli", "assay": "Synergistic antibacterial activity against pET28a NDM-1 positive Escherichia coli BL21(DE3) isolates assessed as fractional Inhibitory concentration index incubated for 18 to 24 hrs in presence of vancomycin by CLSI based broth microdilution method", "type": "functional", "details": "time 18-24 hrs"}, "Escherichia coli [31]": {"system": "Escherichia coli", "assay": "Synergistic antibacterial activity against NDM-1 positive MCR1 carrying Escherichia coli ZJ487 isolates assessed as fractional Inhibitory concentration index incubated for 18 to 24 hrs in presence of meropenem by CLSI based broth microdilution method", "type": "functional", "details": "time 18-24 hrs"}, "Bacteria [32]": {"system": "Bacteria", "assay": "Inhibition of NDM-1 M248A mutant activity (unknown origin) in presence of zinc ion"}, "Escherichia coli [33]": {"system": "Escherichia coli", "assay": "Antibacterial activity against NDM-1 positive Escherichia coli ZC-YN3 isolates assessed as spectinomycin MIC incubated for 18 to 24 hrs by CLSI based broth microdilution method", "type": "functional", "details": "time 18-24 hrs"}, "Bacteria [34]": {"system": "Bacteria", "assay": "Binding affinity to NDM-1 H250A mutant (unknown origin) assessed as binding free energy by fluorescence quenching method"}, "Escherichia coli [35]": {"system": "Escherichia coli", "assay": "Synergistic antibacterial activity against NDM-1 positive Escherichia coli ZC-YN3 isolates assessed as fractional Inhibitory concentration index incubated for 18 to 24 hrs in presence of lincomycin by CLSI based broth microdilution method", "type": "functional", "details": "time 18-24 hrs"}}, "note": "Active and inactive are the calls of the source. The calls are words filed in the database; no cut-off is given here."}
{"smiles": "O=c1c(O)c(-c2ccc(O)c(O)c2)oc2cc(O)ccc12", "note": "[FISETIN]", "values": [{"measurement": "fractional inhibitory concentration index (FICI)", "setting": "Escherichia coli [1]", "value": 0.79}, {"measurement": "Activity", "setting": "Mus musculus [2]", "value": 20, "unit": "%"}, {"measurement": "IC50", "setting": "[3]", "value": 56.13, "unit": "µg/mL"}, {"measurement": "fractional inhibitory concentration index (FICI)", "setting": "Escherichia coli [4]", "value": 1.13}, {"measurement": "fractional inhibitory concentration index (FICI)", "setting": "Escherichia coli [5]", "value": 0.96}, {"measurement": "MIC", "setting": "Escherichia coli [6]", "value": 4, "unit": "µg/mL"}, {"measurement": "fractional inhibitory concentration index (FICI)", "setting": "Escherichia coli [7]", "value": 0.25}, {"measurement": "MIC", "setting": "Escherichia coli [8]", "value": 6.67, "unit": "µg/mL"}, {"measurement": "MIC", "setting": "Escherichia coli [9]", "value": 512, "unit": "µg/mL"}, {"measurement": "MIC", "setting": "Escherichia coli [10]", "value": 6.67, "unit": "µg/mL"}, {"measurement": "MIC", "setting": "Escherichia coli [11]", "value": 256, "unit": "µg/mL"}, {"measurement": "fractional inhibitory concentration index (FICI)", "setting": "Escherichia coli [12]", "value": 1.13}, {"measurement": "MIC", "setting": "Escherichia coli [13]", "value": 853, "unit": "µg/mL"}, {"measurement": "Activity", "setting": "Mus musculus [14]", "value": 90, "unit": "%"}, {"measurement": "MIC", "setting": "Escherichia coli [15]", "value": 683, "unit": "µg/mL"}, {"measurement": "inhibition", "setting": "Bacteria [16]", "value": "Active"}, {"measurement": "MIC", "setting": "Escherichia coli [17]", "value": 853, "unit": "µg/mL"}, {"measurement": "MIC", "setting": "Escherichia coli [18]", "value": 0.01, "unit": "µg/mL"}, {"measurement": "fractional inhibitory concentration index (FICI)", "setting": "Escherichia coli [19]", "value": 1.13}, {"measurement": "MIC", "setting": "Escherichia coli [20]", "value": 341, "unit": "µg/mL"}, {"measurement": "fractional inhibitory concentration index (FICI)", "setting": "Escherichia coli [21]", "value": 0.96}, {"measurement": "fractional inhibitory concentration index (FICI)", "setting": "Escherichia coli [22]", "value": 1.13}, {"measurement": "MIC", "setting": "Escherichia coli [23]", "value": 107, "unit": "µg/mL"}, {"measurement": "MIC", "setting": "Escherichia coli [24]", "value": 9.33, "unit": "µg/mL"}, {"measurement": "Ka", "setting": "Bacteria [25]", "value": "12.2 10^5L/mol"}, {"measurement": "IC50", "setting": "[26]", "value": 9.66, "unit": "µg/mL"}, {"measurement": "MIC", "setting": "Escherichia coli [27]", "value": 853, "unit": "µg/mL"}, {"measurement": "MIC", "setting": "Escherichia coli [28]", "value": 683, "unit": "µg/mL"}, {"measurement": "MIC", "setting": "Escherichia coli [29]", "value": 1.33, "unit": "µg/mL"}, {"measurement": "fractional inhibitory concentration index (FICI)", "setting": "Escherichia coli [30]", "value": 1.13}, {"measurement": "fractional inhibitory concentration index (FICI)", "setting": "Escherichia coli [31]", "value": 0.38}, {"measurement": "inhibition", "setting": "Bacteria [32]", "value": "Active"}, {"measurement": "MIC", "setting": "Escherichia coli [33]", "value": 853, "unit": "µg/mL"}, {"measurement": "Activity", "setting": "Bacteria [34]", "value": -12.4, "unit": "kcal/mol"}, {"measurement": "fractional inhibitory concentration index (FICI)", "setting": "Escherichia coli [35]", "value": 1.13}]}
